In patent US5576311A, “Cyclodextrins as suspending agents for pharmaceutical suspensions” (Pharmos Corporation, priority 1994, dated 1996):
In brackets after ≈: the same amount, converted by molar mass. Read-outs that look alike come from different tables or passages of the source. One block for each compound: values may come before it.

What was measured:
[1] = 25° C.; cited from earlier work
glucocorticoid receptors = settings: cited from earlier work
[2] = in vivo; cited from earlier work
[3] = HPLC measurement of concentration of LE in cyclodextrin suspensions after storage; type: physicochemical
[4] = Method D: solubilization of LE by cyclodextrins, HPLC before and after centrifugation; type: physicochemical
Method: To evaluate solubilization of drugs such as LE by cyclodextrins, LE is continuously mixed with cyclodextrins in various concentrations in water for one week at room temperature. Samples of the resulting suspensions and the soluble fractions of LE are analyzed by high pressure liquid chromatography ("HPLC") before and after centrifugation at 5000 G, respectively (hereinafter referred to as "Method D"). The concentrations of LE are calculated from the area under the curve of the LE peak using known techniques.

[5] = Stability of aqueous suspensions of LE with buffering systems or ionic tonicity agents; type: physicochemical; settings: accepted buffering systems or ionic tonicity agents
[6] = in vivo; cited from earlier work; remark: listed apart in the source

Structure (SMILES): OC[C@H]1O[C@@H]2O[C@H]3[C@H](O)[C@@H](O)[C@@H](O[C@H]4[C@H](O)[C@@H](O)[C@@H](O[C@H]5[C@H](O)[C@@H](O)[C@@H](O[C@H]6[C@H](O)[C@@H](O)[C@@H](O[C@H]7[C@H](O)[C@@H](O)[C@@H](O[C@H]8[C@H](O)[C@@H](O)[C@@H](O[C@H]1[C@H](O)[C@H]2O)O[C@@H]8CO)O[C@@H]7CO)O[C@@H]6CO)O[C@@H]5CO)O[C@@H]4CO)O[C@@H]3CO [β-Cyclodextrin, β-cyclodextrin]
aqueous solubility [1]: about 1.8 % w/v

Structure (SMILES): CCOC(=O)OC1(C(=O)O)CCC2C3CCC4=CC(=O)C=CC4(C)C3C(O)CC21C (stereo not drawn) [PJ-91]
binding to glucocorticoid receptors (glucocorticoid receptors): does not bind to glucocorticoid receptors

[LE] measurement (% of label) ([3]; 5 mg/ml label, BCD 1%, 23 C, 4.0 mos, 172800 min): 106.78 % of label
[LE] measurement (% of label) ([3]; 5 mg/ml label, HECD 1%, 23 C, 4.0 mos, 172800 min): 104.26 % of label
[LE] measurement (% of label) ([3]; 5 mg/ml label, HPCD 0.5%, 23 C, 5.0 mos, 216000 min): 101.12 % of label
[LE] measurement (% of label) ([3]; 5 mg/ml label, HPCD 1%, 23 C, 0.5 mos, 21600 min): 94.3 % of label
[LE] measurement (% of label) ([3]; 5 mg/ml label, HPCD 1%, 23 C, 5.0 mos, 216000 min): 115.45 % of label
[LE] measurement (% of label) ([3]; 5 mg/ml label, HPCD 1%, 37 C, 2.0 mos, 86400 min): 104.04 % of label
[LE] measurement (% of label) ([3]; 5 mg/ml label, HPCD 1%, 45 C, 2.0 mos, 86400 min): 96.84 % of label
[LE] measurement (% of label) ([3]; 10 mg/ml label, BCD 1%, 23 C, 4.0 mos, 172800 min): 105.7 % of label
[LE] measurement (% of label) ([3]; 10 mg/ml label, HECD 1%, 23 C, 4.0 mos, 172800 min): 135.88 % of label
[LE] measurement (% of label) ([3]; 10 mg/ml label, HPCD 0.5%, 23 C, 5.0 mos, 216000 min): 109.09 % of label
[LE] measurement (% of label) ([3]; 10 mg/ml label, HPCD 1%, 23 C, 0.5 mos, 21600 min): 88.18 % of label
[LE] measurement (% of label) ([3]; 10 mg/ml label, HPCD 1%, 23 C, 5.0 mos, 216000 min): 110.23 % of label
concentration of LE in the suspension (in words) ([3]; Table 4 storage): not significantly altered
solubility at 168 h ([4]; water with 0.5% hpcd, 0.5% HPCD, water, one week, room temperature, read-out: LE Solubilized): 7 µg/mL (≈ 15 µM)
solubility at 168 h ([4]; water with 1.0% bcd, 1.0% BCD, water, one week, room temperature, read-out: LE Solubilized): 10 µg/mL (≈ 21.4 µM)
solubility at 168 h ([4]; water with 1.0% hecd, 1.0% HECD, water, one week, room temperature, read-out: LE Solubilized): 10 µg/mL (≈ 21.4 µM)
solubility at 168 h ([4]; water with 1.0% hpcd, 1.0% HPCD, water, one week, room temperature, read-out: LE Solubilized): 5 µg/mL (≈ 10.7 µM)
solubility at 168 h ([4]; water with cyclodextrin, all cyclodextrins of Table 3, read-out: LE solubilized by cyclodextrins): ≤ 10 µg/mL
obtaining stable aqueous suspensions [5]: cannot be obtained
Structure (SMILES): CCOC(=O)O[C@]1(C(=O)OCCl)CC[C@H]2[C@@H]3CCC4=CC(=O)C=C[C@]4(C)[C@H]3[C@@H](O)C[C@@]21C [LE, loteprednol etabonate]
risk of steroid induced cataracts and elevation of intra-ocular pressure [2]: reducing the risk of steroid induced cataracts and elevation of intra-ocular pressure
efficacy relative to prednisolone acetate [6]: efficacy similar to its parent compound, namely, prednisolone acetate
ocular anti-inflammatory activity [6]: has ocular anti-inflammatory activity
